Results: ChEMBL document CHEMBL1147725, “Identification and biological characterization of 6-aryl-7-isopropylquinazolinones as novel TRPV1 antagonists that are effective in models of chronic pain” (J Med Chem, 2006)

What was measured:
[1] = Plasma concentration in rat at 1 mg/kg, iv after 2 hrs; assay type: ADME, organism-based; design: dose 1 mg/kg, route intravenous; conditions: Wistar Han
[2] = Plasma concentration in rat at 10 mg/kg, po after 6 hrs; assay type: ADME, organism-based; design: dose 10 mg/kg, route oral; conditions: Wistar Han
[3] = Plasma concentration in rat at 3 mg/kg, po after 2 hrs; assay type: ADME, organism-based; design: dose 3 mg/kg, route oral; conditions: Wistar Han
[4] = Plasma concentration in rat at 10 mg/kg, po after 1.5 hrs; assay type: ADME, organism-based; design: dose 10 mg/kg, route oral; conditions: Wistar Han
[5] = Plasma concentration in rat at 1 mg/kg, iv after 4 hrs; assay type: ADME, organism-based; design: dose 1 mg/kg, route intravenous; conditions: Wistar Han
[6] = Oral Bioavailability in rat at 3mg/kg; assay type: ADME, organism-based; conditions: Wistar Han, in vivo
Rattus norvegicus [7] = experiment: Cmax in rat brain at 1 mg/kg, iv; assay type: ADME, organism-based, Wistar Han; design: dose 1 mg/kg, route intravenous; conditions: in vivo
[8] = Tmax in rat plasma at 3 mg/kg, po; assay type: ADME, organism-based; design: dose 3 mg/kg, route oral; conditions: Wistar Han
Rattus norvegicus [9] = experiment: Concentration in rat brain at 3 mg/kg, po after 0.16 hrs; assay type: ADME, organism-based, Wistar Han; design: dose 3 mg/kg, route oral; conditions: in vivo
[10] = Plasma concentration in rat at 10 mg/kg, po after 0.16 hrs; assay type: ADME, organism-based; design: dose 10 mg/kg, route oral; conditions: Wistar Han
[11] = Permeability across Caco-2 cell membrane; assay type: ADME, cell-based; conditions: human, read-out: permeability (converted)
[12] = Plasma concentration in rat at 10 mg/kg, po after 24 hrs; assay type: ADME, organism-based; design: dose 10 mg/kg, route oral; conditions: Wistar Han
[13] = Plasma concentration in rat at 1 mg/kg, iv after 6 hrs; assay type: ADME, organism-based; design: dose 1 mg/kg, route intravenous; conditions: Wistar Han
Rattus norvegicus [14] = experiment: Concentration in rat brain at 1 mg/kg, iv after 4 hrs; assay type: ADME, organism-based, Wistar Han; design: dose 1 mg/kg, route intravenous; conditions: in vivo
Rattus norvegicus [15] = experiment: Concentration in rat brain at 10 mg/kg, po after 24 hrs; assay type: ADME, organism-based, Wistar Han; design: dose 10 mg/kg, route oral; conditions: in vivo
[16] = biological target: Transient receptor potential cation channel subfamily V member 1 (Homo sapiens, UniProt Q8NER1); experiment: Inhibition of calcium influx evoked by capsaicin in human TRPV1 expressing cells by fluorescence assay; assay type: functional
Rattus norvegicus [17] = experiment: Cmax in rat brain at 3 mg/kg, po; assay type: ADME, organism-based, Wistar Han; design: dose 3 mg/kg, route oral; conditions: in vivo
[18] = Plasma concentration in rat at 3 mg/kg, po after 6 hrs; assay type: ADME, organism-based; design: dose 3 mg/kg, route oral; conditions: Wistar Han
Rattus norvegicus [19] = experiment: Concentration in rat brain at 1 mg/kg, iv after 1.5 hrs; assay type: ADME, organism-based, Wistar Han; design: dose 1 mg/kg, route intravenous; conditions: in vivo
Rattus norvegicus [20] = experiment: Concentration in rat brain at 3 mg/kg, po after 9 hrs; assay type: ADME, organism-based, Wistar Han; design: dose 3 mg/kg, route oral; conditions: in vivo
Rattus norvegicus [21] = experiment: Concentration in rat brain at 3 mg/kg, po after 0.5 hrs; assay type: ADME, organism-based, Wistar Han; design: dose 3 mg/kg, route oral; conditions: in vivo
[22] = Plasma concentration in rat at 3 mg/kg, po after 4 hrs; assay type: ADME, organism-based; design: dose 3 mg/kg, route oral; conditions: Wistar Han
Rattus norvegicus [23] = experiment: Concentration in rat brain at 10 mg/kg, po after 6 hrs; assay type: ADME, organism-based, Wistar Han; design: dose 10 mg/kg, route oral; conditions: in vivo
[24] = Plasma concentration in rat at 1 mg/kg, iv after 0.083 hrs; assay type: ADME, organism-based; design: dose 1 mg/kg, route intravenous; conditions: Wistar Han
[25] = Plasma concentration in rat at 1 mg/kg, iv after 1 hrs; assay type: ADME, organism-based; design: dose 1 mg/kg, route intravenous; conditions: Wistar Han
Rattus norvegicus [26] = experiment: Concentration in rat brain at 10 mg/kg, po after 1.5 hrs; assay type: ADME, organism-based, Wistar Han; design: dose 10 mg/kg, route oral; conditions: in vivo
Rattus norvegicus [27] = experiment: Concentration in rat brain at 1 mg/kg, iv after 6 hrs; assay type: ADME, organism-based, Wistar Han; design: dose 1 mg/kg, route intravenous; conditions: in vivo
Rattus norvegicus [28] = experiment: Concentration in rat brain at 10 mg/kg, po after 4 hrs; assay type: ADME, organism-based, Wistar Han; design: dose 10 mg/kg, route oral; conditions: in vivo
[29] = Plasma concentration in rat at 10 mg/kg, po after 18 hrs; assay type: ADME, organism-based; design: dose 10 mg/kg, route oral; conditions: Wistar Han
[30] = Plasma concentration in rat at 10 mg/kg, po after 9 hrs; assay type: ADME, organism-based; design: dose 10 mg/kg, route oral; conditions: Wistar Han
[31] = Plasma concentration in rat at 3 mg/kg, po after 0.5 hrs; assay type: ADME, organism-based; design: dose 3 mg/kg, route oral; conditions: Wistar Han
[32] = Plasma concentration in rat at 10 mg/kg, po after 4 hrs; assay type: ADME, organism-based; design: dose 10 mg/kg, route oral; conditions: Wistar Han
Rattus norvegicus [33] = experiment: Concentration in rat brain at 10 mg/kg, po after 1 hrs; assay type: ADME, organism-based, Wistar Han; design: dose 10 mg/kg, route oral; conditions: in vivo
Rattus norvegicus [34] = experiment: Concentration in rat brain at 3 mg/kg, po after 6 hrs; assay type: ADME, organism-based, Wistar Han; design: dose 3 mg/kg, route oral; conditions: in vivo
Rattus norvegicus [35] = experiment: Concentration in rat brain at 3 mg/kg, po after 1.5 hrs; assay type: ADME, organism-based, Wistar Han; design: dose 3 mg/kg, route oral; conditions: in vivo
Rattus norvegicus [36] = experiment: Concentration in rat brain at 10 mg/kg, po after 18 hrs; assay type: ADME, organism-based, Wistar Han; design: dose 10 mg/kg, route oral; conditions: in vivo
Rattus norvegicus [37] = experiment: Concentration in rat brain at 3 mg/kg, po after 24 hrs; assay type: ADME, organism-based, Wistar Han; design: dose 3 mg/kg, route oral; conditions: in vivo
[38] = Plasma concentration in rat at 10 mg/kg, po after 2 hrs; assay type: ADME, organism-based; design: dose 10 mg/kg, route oral; conditions: Wistar Han

Transient receptor potential cation channel subfamily V member 1, sequence (Q8NER1 whole entry): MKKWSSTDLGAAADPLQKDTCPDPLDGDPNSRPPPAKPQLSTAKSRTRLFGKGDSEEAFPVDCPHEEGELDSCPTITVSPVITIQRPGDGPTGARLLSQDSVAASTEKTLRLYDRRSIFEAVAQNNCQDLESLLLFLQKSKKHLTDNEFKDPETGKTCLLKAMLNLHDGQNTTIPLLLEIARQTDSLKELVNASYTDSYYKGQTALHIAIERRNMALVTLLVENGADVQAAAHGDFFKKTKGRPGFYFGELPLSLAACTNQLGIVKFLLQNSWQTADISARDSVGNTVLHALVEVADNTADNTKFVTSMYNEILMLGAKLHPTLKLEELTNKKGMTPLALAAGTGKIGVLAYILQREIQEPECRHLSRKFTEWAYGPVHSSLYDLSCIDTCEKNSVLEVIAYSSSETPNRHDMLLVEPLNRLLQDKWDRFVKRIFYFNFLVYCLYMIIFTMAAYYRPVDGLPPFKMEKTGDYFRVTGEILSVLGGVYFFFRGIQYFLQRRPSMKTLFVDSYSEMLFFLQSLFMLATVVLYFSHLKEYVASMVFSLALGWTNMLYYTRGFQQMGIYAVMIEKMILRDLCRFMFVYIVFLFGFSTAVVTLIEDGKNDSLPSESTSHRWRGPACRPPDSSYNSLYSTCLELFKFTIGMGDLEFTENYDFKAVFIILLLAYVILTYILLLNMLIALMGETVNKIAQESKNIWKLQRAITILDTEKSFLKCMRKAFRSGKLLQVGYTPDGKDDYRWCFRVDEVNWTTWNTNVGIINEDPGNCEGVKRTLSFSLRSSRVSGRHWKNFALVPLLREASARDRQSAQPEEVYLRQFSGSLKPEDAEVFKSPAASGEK

concentration at 2 h [1]: 1080 nM
concentration at 6 h [2]: 3220 nM
concentration at 2 h [3]: 1420 nM
concentration at 1.5 h [4]: 3720 nM
concentration at 4 h [5]: 726 nM
bioavailability [6]: 75%
Cmax (Rattus norvegicus [7]): 1079 pmol/g
Tmax [8]: 4 h
Ct (Rattus norvegicus [9]): 32 pmol/g
concentration at 0.16 h [10]: 71 nM
Papp [11]: 4.37 ×10⁻⁶ cm/s
concentration at 24 h [12]: 106 nM
concentration at 6 h [13]: 488 nM
Ct (Rattus norvegicus [14]): 155 pmol/g
Ct (Rattus norvegicus [15]): < 25 pmol/g
IC50 [16]: 50 nM
Cmax (Rattus norvegicus [17]): 1666 pmol/g
concentration at 6 h [18]: 1860 nM
Ct (Rattus norvegicus [19]): 351 pmol/g
Ct (Rattus norvegicus [20]): 249 pmol/g
Ct (Rattus norvegicus [21]): 211 pmol/g
concentration at 4 h [22]: 1910 nM
Ct (Rattus norvegicus [23]): 1042 pmol/g
concentration at 0.083 h [24]: 2650 nM
concentration at 1 h [25]: 1330 nM
Ct (Rattus norvegicus [26]): 1038 pmol/g
Ct (Rattus norvegicus [27]): 205 pmol/g
Ct (Rattus norvegicus [28]): 1515 pmol/g
concentration at 18 h [29]: 583 nM
concentration at 9 h [30]: 2900 nM
concentration at 0.5 h [31]: 599 nM
concentration at 4 h [32]: 5970 nM
Ct (Rattus norvegicus [33]): 522 pmol/g
Ct (Rattus norvegicus [34]): 1258 pmol/g
Ct (Rattus norvegicus [35]): 951 pmol/g
Ct (Rattus norvegicus [36]): 199 pmol/g
Ct (Rattus norvegicus [37]): < 125 pmol/g
concentration at 2 h [38]: 4340 nM
SMILES: Cc1nc2cc(C(C)C)c(-c3ccc(Cl)c(OCC4CC4)c3)cc2c(=O)[nH]1
